{"source": "patent US20130041005A1", "about": "“PHARMACEUTICAL COMPOSITIONS COMPRISING NEUROPILIN INHIBITORS, AND THEIR USE FOR THE PREVENTION AND/OR TREATMENT OF ANGIOGENIC DISORDERS AND CANCERS” (TRAGEX PHARMA, priority 2011, published 2013)", "key": {"[1]": {"system": "HT-1080", "experiment": "WST-1 proliferation assay, HT-1080", "type": "cell-based", "settings": "Homo sapiens; Fibrosarcoma HT-1080; read-out: Anti-proliferative activity IC50 (μM) ± SD", "description": "(§1) All the cancer cell lines were maintained in cultured in DMEM GlutaMAX™ (GIBCO Invitrogen, France, cat no 31966047) enhanced with 10% foetal bovine serum (GIBCO Invitrogen, France, cat no 10270-106) and 1% penicillin G/streptomycin (GIBCO Invitrogen, France, cat no 15140-122). Only Panc-10.5 cells were cultivated in RPMI 1640 medium (Gibco) supplemented with 2 mM L-glutamine, 1.5 g/L sodium bicarbonate, 4.5 g/L glucose, 10 mM HEPES, 1 mM sodium pyruvate, 10 Units/ml human insulin, […] (SVF): 15% (75 ml in 500 ml of medium).\n(§2) Cells were grown as subconfluent monolayer and cultured in 75 cm^2 flasks at 37° C., 5% CO2 in a humidified atmosphere, and medium was changed every two days. […]\n(§3) The cell proliferation WST-1 assay is a colorimetric assay for the quantification of cell proliferation and viability, based on the enzymatic cleavage of the tetrazolium salt WST-1 added to the culture medium, to a water soluble colored formazan dye, detected by absorbance at 450 nm, by mitochondrial succinate-tetrazolium reductase in viable cells. […]\n(§4) After an incubation period of 72 h, at day 4, were prepared the 19 ml medium with reagent WST-1 1 ml ([…]). […] The cells were incubated at 37° C. in a humidified atmosphere of 5% CO2 for 1 h 30 and the absorbance at 450-655 nm was measured by Microplate Manager 5.2 (Bio-Rad)."}, "[2]": {"system": "DAUDI", "experiment": "WST-1 proliferation assay, DAUDI", "type": "cell-based", "settings": "Homo sapiens; Burkitt's lymphoma DAUDI; read-out: Anti-proliferative activity IC50 (μM) ± SD", "description": "as §1, §2, §3, §4"}, "[3]": {"system": "MDAMB-231 cells", "experiment": "Adhesion test (crystal violet), MDA-MB-231", "type": "cell-based, Human", "settings": "MDAMB-231, FIGS. 1A-C", "description": "The crystal violet (hexamethyl pararosaniline chloride) is used as biologic colorant. It enters in the living cells, allowing the visualisation of the dark purple adherent living cells on the bottom of the plate.\nAfter an incubation period of 72 h, the adherent cells were fixed with […] paraformaldehyde\n3% for 15 min at room temperature. The medium and non-adherent cells were removed, and the cells were washed extensively with […] PBS (+Ca^2+ and +Mg^2+) (Lonza) and then stained with 50 μl of crystal violet 0.04% for 30 min at room temperature. The cells were washed gently 3 times with 100 μl PBS and were permeabilised with 100 μl triton 2% for 15 min. The microplate was stirred to obtain a homogenous solution and absorbance was quantified at 580 nm by Microplate Manager 5.2.\nThe percentage of inhibition is calculated as follow: % inhibition=100−[(DOsample/DOcontrol)*100]."}, "[4]": {"system": "endothelial (HUVEC) cells", "experiment": "Apoptosis assay (Annexin V-FITC/PI), HUVEC", "type": "cell-based", "settings": "IC50 concentration, 72 h (FIG. 2B)", "description": "The level of apoptosis in endothelial (HUVEC) and breast cancer cells (MDA-MB-231) was detected by Annexin V-FITC Apoptosis Detection Kit (ref 556547, BD Biosciences, France) according to the manufacturer's instructions. Briefly, HUVEC and MDA-MB-231 cells were treated separately with DMSO (control) and the compounds of the invention at the concentration corresponding to the IC50, obtained by the proliferation assay, for 72 h. After treatment, all cell including both detached and attached cells were collected, centrifugated at 14000 rpm for 5 min and the apoptotic cells were detected by staining with Annexin V-FITC and (propidium iodide) PI. The cells were resuspended in 100 μl Annexin V binding buffer (10 mM Hepes/NaOH, pH 7.4, 140 mM NaCl, […]) containing 5 μl of Annexin V-FITC and 5 μl of PI (propidium iodide). Samples were gently mixed and incubated for 2 h on ice and in the dark. Viable and apoptotic cell were detected by flow citometry (FACS Calibur Becton Dickinson, France). Apoptotic cells include both the early apoptotic portion (Annexin V-positive) and the late apoptotic portion (Annexin V- and PI-positive). Staurosporine is used as a positive control of apoptosis induction."}, "[5]": {"system": "U2OS", "experiment": "WST-1 proliferation assay, U2OS", "type": "cell-based", "settings": "Homo sapiens"}}, "note": "Entries after “also recorded” stand apart in the source; their conditions may differ.", "data": [{"smiles": "Cc1ccc(-c2nc3ccccc3[nH]2)cc1NC(=S)NC(=O)c1ccc2c(c1)OCCO2", "note": "[Compound 1, N-[5-(1H-benzimidazol-2-yl)-2-methylphenyl]-N′-(2,3-dihydro-1,4-benzodioxin-6-ylcarbonyl)thiourea]", "values": [{"measurement": "IC50", "setting": "[1]", "value": "0.3 ± 0.23", "unit": "µM"}, {"measurement": "IC50", "setting": "[2]", "value": 1, "unit": "µM"}, {"measurement": "inhibition of adhesion of cancer cells in culture", "setting": "[3]", "value": "inhibited the adhesion"}, {"measurement": "induction of apoptosis in endothelial cells", "setting": "[4]", "value": "induced the apoptosis; also recorded: induction of apoptosis"}, {"measurement": "inhibition at 0.05 µM", "setting": "[5]", "value": 9, "unit": "%"}]}, {"smiles": "O=C(NC(=S)Nc1cccc(-c2nc3ccccc3[nH]2)c1)c1ccc2c(c1)OCCO2", "note": "[Compound 2, N-[3-(1H-benzimidazol-2-yl)phenyl]-N′-(2,3-dihydro-1,4-benzodioxin-6-ylcarbonyl)thiourea]", "values": [{"measurement": "IC50", "setting": "[1]", "value": "0.07 ± 0.03", "unit": "µM"}, {"measurement": "IC50", "setting": "[2]", "value": "0.5 ± 0.02", "unit": "µM"}, {"measurement": "inhibition of adhesion of cancer cells in culture", "setting": "[3]", "value": "inhibited the adhesion"}, {"measurement": "induction of apoptosis in endothelial cells", "setting": "[4]", "value": "induced the apoptosis; also recorded: induction of apoptosis"}, {"measurement": "inhibition at 0.05 µM", "setting": "[5]", "value": 18, "unit": "%"}]}]}
